Measurements as given in patent publication US10736863B2, “Methods of inhibiting cataracts and presbyopia” (UNIVERSITY OF MASSACHUSETTS, priority 2015, dated 2020).

Molecular target: T1, human γD-crystallin protein (Homo sapiens, UniProt P07320)
T1 construct: 6xHis (N); made in house; host or cells: E. coli (M15pRep; TAM 1 is also named as an expression line); pQe1 plasmids from the King Labs, MIT
T1 sequence (P07320 1-174): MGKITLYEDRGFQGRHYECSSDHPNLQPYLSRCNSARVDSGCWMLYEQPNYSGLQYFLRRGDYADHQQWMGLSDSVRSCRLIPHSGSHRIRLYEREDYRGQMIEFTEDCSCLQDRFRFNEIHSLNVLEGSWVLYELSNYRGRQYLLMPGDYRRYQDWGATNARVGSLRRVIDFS
Assay: Dynamic light scattering of γD-crystallin protein modified with CA(PEG)n
Assay type: biochemical
Text: The γD- and γS-crystallin DNA sequences are in pQe1 plasmids that were provided by the King Labs at Massachusetts Institute of Technology (Cambridge, Mass.). γ-crystallin protein sequences contain a 6×N-terminal histidine tag (his tag) for purification purposes. The plasmids were transformed into a cloning competent cell line to create additional plasmid DNA. Plasmids were subsequently transformed into an expression competent cell line for protein synthesis (TAM 1 E. coli cells (Active Motif. Carlsbad, Calif.)).
γ-crystallin plasmid DNA was chemically transformed into M15pRep E. coli cells for protein synthesis. 1 L cultures were grown for protein purification. γ-crystallin protein was purified by Ni affinity chromatography. The N-terminal His tag contained on the γ-crystallin proteins preferentially binds to the Ni column. The bound protein can be eluted with an imidazole gradient which competitively binds to the Ni, releasing the purified protein. The procedure for purification is briefly (as before): protein is loaded on column, and washed first with 20 mM (0% B), then 35 mM (10% B), then 60 mM (20% B) imidazole. Protein is then eluted at 150 mM (57% B) imidazole. Purity was confirmed by SDS PAGE gel electrophoresis and fast protein liquid chromatography (FPLC).
Chemical Modification Protocol: • 1) A batch of purified protein was buffer exchanged into PBS pH=6.8 using a HiTrap™ desalting column. • (2) Concentration (A280) was measured prior to the addition of CA(PEG)n. • (3) 100 mg of CA(PEG)n was added to a 3-5 ml batch of the above protein. • (4) The mixture was placed on a shaker at 4° C. at 250 RPM overnight.
First a solution of unmodified γD-crystallin protein at a concentration of 0.1 mg/mL was studied by DLS. The measured correlation function g2-1 is plotted against the delay time (lag time) is given for the scattering angle of 30° in FIG. 2. The CONTIN analysis of the weight of various relaxation times is given in FIG. 3 for scattering angles ranging from 30° to 60°. It is clear that there are two populations in the solution, one corresponding to aggregates and the other corresponding to unaggregated protein.

[1] = 0.9 mg/mL of protein and 33 mg/ml of CA(PEG)n
[2] = 0.3 mg/mL of protein and 11 mg/ml of CA(PEG)3
[3] = 0.4 mg/mL of protein and 15 mg/ml of CA(PEG)2

Compound	aggregate population of γD-crystallin by dynamic light scattering [1]	size of the unaggregated protein by dynamic light scattering [1] [nm]	also measured
NCCOCCOCCOCCOCCC(=O)O [CA(PEG)4]	absent	2	
NCCOCCC(=O)O [CA(PEG)1]	absent	2	
NCCOCCOCCOCCC(=O)O [CA(PEG)3]			aggregate population of γD-crystallin by dynamic light scattering [2]: absent; size of the unaggregated protein by dynamic light scattering [2]: 2 nm
NCCOCCOCCC(=O)O [CA(PEG)2]			aggregate population of γD-crystallin by dynamic light scattering [3]: absent; size of the unaggregated protein by dynamic light scattering [3]: 2 nm
